According to patent US20190343858A1, “METHOD OF REGULATING THE CIRCADIAN RHYTHM OF AN INDIVIDUAL COMPRISING ADMINISTERING AN EFFECTIVE AMOUNT OF A CIRCADIAN RHYTHM REGULATOR CONTAINING 1,2-DI-O-GALLOYL-4,6-O-(S)-HEXAHYDROXYDIPHENOYL-B-D-GLUCOSE” (ORYZA OIL & FAT CHEMICAL CO., LTD,, priority 2017, published 2019):

System: BMAL1 gene
Assay: Evaluation of the BMAL1 gene-expression-promotion activity (BMAL1 mRNA amount via reverse-transcribed cDNA)
Assay type: cell-based
Conditions: rat-muscle myoblasts C2Cl2, differentiation-induction, cultivated one week; 3 μg/mL; Dunnett, ** p<0.01
Method: Differentiation-induction was done to the rat-muscle myoblasts C2Cl2. At the same time, the purple-tea extract of 0.1, 1.0, 3.0 and 10 μg/mL, and the GHG of 0.1, 1.0 and 3 μg/mL, was respectively added to such myoblasts and cultivated for one week. After that, an RNA extraction was done to determine, by using a reverse-transcribed cDNA, the amount of mRNA and of the BMAL1 gene.
A significance-test was done by the Dunnett Method, and the double asterisk ** means p<0.01. Also, no active components were added to the “control,” but the purple-tea extract (GHG-content extract) was added to the “PTE.”

O=C(OC1OC2COC(=O)c3cc(O)c(O)c(O)c3-c3c(cc(O)c(O)c3O)C(=O)OC2C(O)C1OC(=O)c1cc(O)c(O)c(O)c1)c1cc(O)c(O)c(O)c1 [GHG, 1,2-di-O-galloyl-4,6-O—(S)-hexahydroxydiphenoyl-ß-D-glucose]
expression-level of the BMAL1 gene against the Control: significantly was seen to have increased
